Results reported in patent US9738902B2, “Modified PYR/PYL receptors activated by ligands” (priority 2013, dated 2017).

How the values were obtained:
Assay type in all cases: cell-based
PYR1 K59R A160G = molecular target: T1, PYR1 K59R A160G (Arabidopsis thaliana, UniProt O49686, A160G/K59R); assay: Y2H Pocket Library Screen (HAB1, X-gal)
T1 construct: expressed in transfected cells; host or cells: S. cerevisiae Y190
Description: (§1) The set of 475 mutant plasmids were individually transformed into the Y190 yeast two hybrid reporter strain co-transformed with pACT-HAB1, as previously described (Park et al., 2009). The yeast strains generated were arrayed into 96-well plates yielding what we refer to as the “pocket library”. The pocket library strains were spotted onto agar plates containing selective synthetic dextrose (minus Leu & Trp) medium that was supplemented with a single test compound at 100 μM. The pocket library strains were separately tested for responsiveness to the following compounds: dichlobenil, benzothiadiazole, mandipropamid, fludioxonil, and benoxacor. After incubating test plates at 30° C. for two days, colonies were chloroform lysed and stained to reveal β-galactosidase expression levels, using previously described methods (Park et al., 2009). Mutants displaying responsiveness to the test compound, if present, were identified by virtue of X-gal staining and then subjected to subsequent optimization efforts. Using this approach we identified mutations that conferred detectable sensitivity to the compounds tested (see entries labeled “Pocket Library Screens” in Table 1).

PYR1 K59R A89C = molecular target: T2, PYR1 K59R A89C (Arabidopsis thaliana, UniProt O49686, A89C/K59R); assay: Y2H Pocket Library Screen (HAB1, X-gal)
T2 construct: expressed in transfected cells; host or cells: S. cerevisiae Y190 yeast two-hybrid reporter strain
Description: as §1

PYR1 K59R E141K = molecular target: T3, PYR1 K59R E141K (Arabidopsis thaliana, UniProt O49686, E141K/K59R); assay: Y2H Pocket Library Screen (HAB1, X-gal)
T3 construct: expressed in transfected cells; host or cells: S. cerevisiae Y190 two-hybrid reporter strain
Description: as §1

PYR1 K59R E141Y = molecular target: T4, PYR1 K59R E141Y (Arabidopsis thaliana, UniProt O49686, E141Y/K59R); assay: Y2H Pocket Library Screen (HAB1, X-gal)
T4 construct: expressed in transfected cells; host or cells: S. cerevisiae Y190 two-hybrid reporter strain
Description: as §1

PYR1 K59R F159A = molecular target: T5, PYR1 K59R F159A (Arabidopsis thaliana, UniProt O49686, F159A/K59R); assay: Y2H Pocket Library Screen (HAB1, X-gal)
T5 construct: expressed in transfected cells; host or cells: S. cerevisiae Y190 two-hybrid reporter strain
Description: as §1

PYR1 K59R F159C = molecular target: T6, PYR1 K59R F159C (Arabidopsis thaliana, UniProt O49686, F159C/K59R); assay: Y2H Pocket Library Screen (HAB1, X-gal)
T6 construct: expressed in transfected cells; host or cells: S. cerevisiae Y190 two-hybrid reporter strain
Description: as §1

PYR1 K59R F159I = molecular target: T7, PYR1 K59R F159I (Arabidopsis thaliana, UniProt O49686, F159I/K59R); assay: Y2H Pocket Library Screen (HAB1, X-gal)
T7 construct: expressed in transfected cells; host or cells: S. cerevisiae Y190 two-hybrid reporter strain
T7 sequence (O49686 whole entry K59R/F159I): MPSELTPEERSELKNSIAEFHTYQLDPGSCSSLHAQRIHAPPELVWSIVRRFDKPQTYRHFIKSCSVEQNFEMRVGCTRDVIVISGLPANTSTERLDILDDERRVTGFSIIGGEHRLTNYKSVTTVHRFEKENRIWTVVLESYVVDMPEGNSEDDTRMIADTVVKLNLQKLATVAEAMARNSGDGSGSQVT
T7 sequence (Q9CAJ0 23-511, further chain): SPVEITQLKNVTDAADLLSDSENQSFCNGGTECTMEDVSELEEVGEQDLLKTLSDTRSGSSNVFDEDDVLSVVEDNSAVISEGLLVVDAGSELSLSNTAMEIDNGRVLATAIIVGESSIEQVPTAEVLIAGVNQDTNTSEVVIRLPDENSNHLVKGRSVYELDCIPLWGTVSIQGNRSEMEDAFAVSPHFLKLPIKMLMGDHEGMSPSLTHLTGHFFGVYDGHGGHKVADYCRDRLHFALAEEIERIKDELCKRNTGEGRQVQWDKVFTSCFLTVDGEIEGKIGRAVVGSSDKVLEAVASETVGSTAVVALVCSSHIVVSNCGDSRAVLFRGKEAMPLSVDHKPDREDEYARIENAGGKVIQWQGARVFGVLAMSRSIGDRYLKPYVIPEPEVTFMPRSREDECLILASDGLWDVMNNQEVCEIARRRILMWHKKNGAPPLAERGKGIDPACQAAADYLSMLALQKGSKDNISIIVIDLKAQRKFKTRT
Description: as §1

PYR1 K59R F159L = molecular target: T8, PYR1 K59R F159L (Arabidopsis thaliana, UniProt O49686, F159L/K59R); assay: Y2H Pocket Library Screen (HAB1, X-gal)
T8 construct: expressed in transfected cells; host or cells: S. cerevisiae Y190
Description: as §1

PYR1 K59R F159M = molecular target: T9, PYR1 K59R F159M (Arabidopsis thaliana, UniProt O49686, F159M/K59R); assay: Y2H Pocket Library Screen (HAB1, X-gal)
T9 construct: expressed in transfected cells; host or cells: S. cerevisiae Y190
T9 sequence (O49686 whole entry K59R/F159M): as the sequence (O49686 whole entry K59R/F159I) above, with I159M counted along it
T9 sequence (Q9CAJ0 23-511, further chain): as the sequence (Q9CAJ0 23-511, further chain) above
Description: as §1

PYR1 K59R F159T = molecular target: T10, PYR1 K59R F159T (Arabidopsis thaliana, UniProt O49686, F159T/K59R); assay: Y2H Pocket Library Screen (HAB1, X-gal)
T10 construct: expressed in transfected cells; host or cells: S. cerevisiae Y190
Description: as §1

PYR1 K59R F159V = molecular target: T11, PYR1 K59R F159V (Arabidopsis thaliana, UniProt O49686, F159V/K59R); assay: Y2H Pocket Library Screen (HAB1, X-gal)
T11 construct: expressed in transfected cells; host or cells: S. cerevisiae Y190
Description: as §1

PYR1 K59R L117C = molecular target: T12, PYR1 K59R L117C (Arabidopsis thaliana, UniProt O49686, K59R/L117C); assay: Y2H Pocket Library Screen (HAB1, X-gal)
T12 construct: expressed in transfected cells; host or cells: S. cerevisiae Y190 two-hybrid reporter strain
Description: as §1

PYR1 K59R M158C = molecular target: T13, PYR1 K59R M158C (Arabidopsis thaliana, UniProt O49686, K59R/M158C); assay: Y2H Pocket Library Screen (HAB1, X-gal)
T13 construct: expressed in transfected cells; host or cells: S. cerevisiae Y190 two-hybrid reporter strain
Description: as §1

PYR1 K59R M158I = molecular target: T14, PYR1 K59R M158I (Arabidopsis thaliana, UniProt O49686, K59R/M158I); assay: Y2H Pocket Library Screen (HAB1, X-gal)
T14 construct: expressed in transfected cells; host or cells: S. cerevisiae Y190 two-hybrid reporter strain
Description: as §1

PYR1 K59R M158T = molecular target: T15, PYR1 K59R M158T (Arabidopsis thaliana, UniProt O49686, K59R/M158T); assay: Y2H Pocket Library Screen (HAB1, X-gal)
T15 construct: expressed in transfected cells; host or cells: S. cerevisiae Y190 two-hybrid reporter strain
Description: as §1

PYR1 K59R M158V = molecular target: T16, PYR1 K59R M158V (Arabidopsis thaliana, UniProt O49686, K59R/M158V); assay: Y2H Pocket Library Screen (HAB1, X-gal)
T16 construct: expressed in transfected cells; host or cells: S. cerevisiae Y190 two-hybrid reporter strain
T16 sequence (O49686 whole entry K59R/M158V): as the sequence (O49686 whole entry K59R/F159I) above, with M158V, I159F counted along it
T16 sequence (Q9CAJ0 23-511, further chain): as the sequence (Q9CAJ0 23-511, further chain) above
Description: as §1

PYR1 K59R T162K = molecular target: T17, PYR1 K59R T162K (Arabidopsis thaliana, UniProt O49686, K59R/T162K); assay: Y2H Pocket Library Screen (HAB1, X-gal)
T17 construct: expressed in transfected cells; host or cells: S. cerevisiae Y190
T17 sequence (O49686 whole entry K59R/T162K): as the sequence (O49686 whole entry K59R/F159I) above, with I159F, T162K counted along it
T17 sequence (Q9CAJ0 23-511, further chain): as the sequence (Q9CAJ0 23-511, further chain) above
Description: as §1

PYR1 K59R T162W = molecular target: T18, PYR1 K59R T162W (Arabidopsis thaliana, UniProt O49686, K59R/T162W); assay: Y2H Pocket Library Screen (HAB1, X-gal)
T18 construct: expressed in transfected cells; host or cells: S. cerevisiae Y190
Description: as §1

PYR1 K59R T162Y = molecular target: T19, PYR1 K59R T162Y (Arabidopsis thaliana, UniProt O49686, K59R/T162Y); assay: Y2H Pocket Library Screen (HAB1, X-gal)
T19 construct: expressed in transfected cells; host or cells: S. cerevisiae Y190
Description: as §1

PYR1 K59R V164K = molecular target: T20, PYR1 K59R V164K (Arabidopsis thaliana, UniProt O49686, K59R/V164K); assay: Y2H Pocket Library Screen (HAB1, X-gal)
T20 construct: expressed in transfected cells; host or cells: S. cerevisiae Y190
T20 sequence (O49686 whole entry K59R/V164K): as the sequence (O49686 whole entry K59R/F159I) above, with I159F, V164K counted along it
T20 sequence (Q9CAJ0 23-511, stated change not applied, further chain): as the sequence (Q9CAJ0 23-511, further chain) above
Description: as §1

PYR1 K59R V164Y = molecular target: T21, PYR1 K59R V164Y (Arabidopsis thaliana, UniProt O49686, K59R/V164Y); assay: Y2H Pocket Library Screen (HAB1, X-gal)
T21 construct: expressed in transfected cells; host or cells: S. cerevisiae Y190 two-hybrid reporter strain
Description: as §1

PYR1 K59R V81I = molecular target: T22, PYR1 K59R V81I (Arabidopsis thaliana, UniProt O49686, K59R/V81I); assay: Y2H Pocket Library Screen (HAB1, X-gal)
T22 construct: expressed in transfected cells; host or cells: S. cerevisiae Y190 yeast two-hybrid reporter strain
Description: as §1

PYR1 K59R V83L = molecular target: T23, PYR1 K59R V83L (Arabidopsis thaliana, UniProt O49686, K59R/V83L); assay: Y2H Pocket Library Screen (HAB1, X-gal)
T23 construct: expressed in transfected cells; host or cells: S. cerevisiae Y190 yeast two-hybrid reporter strain
Description: as §1

PYR1 K59R A160G L117C = molecular target: T24, PYR1 K59R A160G L117C (Arabidopsis thaliana, UniProt O49686, A160G/K59R/L117C); assay: Y2H Combinatorial Mutagenesis Screen I (HAB1, X-gal)
T24 construct: expressed in transfected cells; host or cells: S. cerevisiae Y190 two-hybrid reporter strain
Text: (§2) This screening approach yielded mutants at ligand contacting residues that alter sensitivity to specific ligands. We reasoned that receptor sensitivity could be improved by systematically constructing combinations of the best mutant variants identified in the first round of screening. To test this, we constructed mutant combinations using the strongest mutations identified for mandipropamid, benzothiadiazole, benoxacor or fludioxonil sensitivity. The mutations selected for combinatorial mutagenesis are listed in bold type in Table 1; The mutant combinations were constructed using the QuickChange Lightning Multi Site-Directed PCR Mutagenesis kit (Agilent, USA) using pBD-PYR1^K59R template DNA and mutagenic primers, essentially as previously described (Mosquna et al., 2011). The mutant combinations were sequence validated, introduced into the pACT-HAB1 Y190 reporter strain and then tested for responsiveness to a range of compound concentrations (100, 50, 25, 10, 1, 0.2, 0.1 or 0 μM each test compound). These efforts yielded double mutant receptor variants with improved sensitivity for the 4 compound/receptor pairs examined (see entries labeled “Combinatorial Mutagenesis Screen I” in Table 1).

PYR1 K59R A160G V164K = molecular target: T25, PYR1 K59R A160G V164K (Arabidopsis thaliana, UniProt O49686, A160G/K59R/V164K); assay: as above
T25 construct: expressed in transfected cells; host or cells: S. cerevisiae Y190 two-hybrid reporter strain
Text: as §2

PYR1 K59R A89C A160G = molecular target: T26, PYR1 K59R A89C A160G (Arabidopsis thaliana, UniProt O49686, A160G/A89C/K59R); assay: as above
T26 construct: expressed in transfected cells; host or cells: S. cerevisiae Y190 two-hybrid reporter strain
Text: as §2

PYR1 K59R A89C E141Y = molecular target: T27, PYR1 K59R A89C E141Y (Arabidopsis thaliana, UniProt O49686, A89C/E141Y/K59R); assay: as above
T27 construct: expressed in transfected cells; host or cells: S. cerevisiae Y190 two-hybrid reporter strain
Text: as §2

PYR1 K59R A89C L117C = molecular target: T28, PYR1 K59R A89C L117C (Arabidopsis thaliana, UniProt O49686, A89C/K59R/L117C); assay: as above
T28 construct: expressed in transfected cells; host or cells: S. cerevisiae Y190 two-hybrid reporter strain
T28 sequence (O49686 whole entry K59R/A89C/L117C): as the sequence (O49686 whole entry K59R/F159I) above, with A89C, L117C, I159F counted along it
T28 sequence (Q9CAJ0 23-511, stated change not applied, further chain): as the sequence (Q9CAJ0 23-511, further chain) above
Text: as §2

PYR1 K59R A89C V164K = molecular target: T29, PYR1 K59R A89C V164K (Arabidopsis thaliana, UniProt O49686, A89C/K59R/V164K); assay: as above
T29 construct: expressed in transfected cells; host or cells: S. cerevisiae Y190 two-hybrid reporter strain
T29 sequence (O49686 whole entry K59R/A89C/V164K): as the sequence (O49686 whole entry K59R/F159I) above, with A89C, I159F, V164K counted along it
T29 sequence (Q9CAJ0 23-511, stated change not applied, further chain): as the sequence (Q9CAJ0 23-511, further chain) above
Text: as §2

PYR1 K59R E141Y A160G = molecular target: T30, PYR1 K59R E141Y A160G (Arabidopsis thaliana, UniProt O49686, A160G/E141Y/K59R); assay: as above
T30 construct: expressed in transfected cells; host or cells: S. cerevisiae Y190 two-hybrid reporter strain
Text: as §2

PYR1 K59R L117C V164K = molecular target: T31, PYR1 K59R L117C V164K (Arabidopsis thaliana, UniProt O49686, K59R/L117C/V164K); assay: as above
T31 construct: expressed in transfected cells; host or cells: S. cerevisiae Y190 two-hybrid reporter strain
Text: as §2

Measured: Threshold

c1ccc2snnc2c1 [Benzothiadiazole, benzothiadiazole]
5 µM: PYR1 K59R A160G V164K | PYR1 K59R A89C A160G | PYR1 K59R E141Y A160G
0.2 µM: PYR1 K59R A89C E141Y | PYR1 K59R A89C V164K
25 µM: PYR1 K59R A160G L117C | PYR1 K59R A89C L117C
100 µM: all other assays above
